Source: patent US6762200B2, “Oxa(thia)zolidine derivative and anti-inflammatory drug” (Nippon Soda Co. Ltd., priority 2000, dated 2004)

How the values were obtained:
TPA-induced ear edema = format: in vivo, ICR-strain male mouse; settings: topical, 0.3 mg/20 μL/ear × 2; 6 hours after TPA
Method: This test was carried out referring to the method of Carlson, R. P. et al. (Agents and Actions, 17(2): 197-204 (1985).) and the method of Chang, J. (European Journal of Pharmacology, 142: 197-205 (1987).). […] 6 hours later, the thickness of each ear at the particular part was respectively measured three times using a digimatic micrometer to calculate the mean value. Ear edema was determined by subtracting the mean thickness of the left ear as without treatment from that of the right ear as TPA-applied. […] As the positive control, 100 mg/kg of Hydrocortisone (Sigma Chemical Co., H 4001) suspension was applied to the mouse similarly as for the compound of the present invention.

IV-cPLA(2) = target: T1, IV-cPLA(2) (Homo sapiens, UniProt P47712); experiment: PLA(2) activity, hydrolysis of bis-BODIPY FL C11-PC in activated U937 cells; format: cell-based; settings: for inhibition at 0.1 µM: U-937, 0.1 μM
T1 sequence (P47712 1-749): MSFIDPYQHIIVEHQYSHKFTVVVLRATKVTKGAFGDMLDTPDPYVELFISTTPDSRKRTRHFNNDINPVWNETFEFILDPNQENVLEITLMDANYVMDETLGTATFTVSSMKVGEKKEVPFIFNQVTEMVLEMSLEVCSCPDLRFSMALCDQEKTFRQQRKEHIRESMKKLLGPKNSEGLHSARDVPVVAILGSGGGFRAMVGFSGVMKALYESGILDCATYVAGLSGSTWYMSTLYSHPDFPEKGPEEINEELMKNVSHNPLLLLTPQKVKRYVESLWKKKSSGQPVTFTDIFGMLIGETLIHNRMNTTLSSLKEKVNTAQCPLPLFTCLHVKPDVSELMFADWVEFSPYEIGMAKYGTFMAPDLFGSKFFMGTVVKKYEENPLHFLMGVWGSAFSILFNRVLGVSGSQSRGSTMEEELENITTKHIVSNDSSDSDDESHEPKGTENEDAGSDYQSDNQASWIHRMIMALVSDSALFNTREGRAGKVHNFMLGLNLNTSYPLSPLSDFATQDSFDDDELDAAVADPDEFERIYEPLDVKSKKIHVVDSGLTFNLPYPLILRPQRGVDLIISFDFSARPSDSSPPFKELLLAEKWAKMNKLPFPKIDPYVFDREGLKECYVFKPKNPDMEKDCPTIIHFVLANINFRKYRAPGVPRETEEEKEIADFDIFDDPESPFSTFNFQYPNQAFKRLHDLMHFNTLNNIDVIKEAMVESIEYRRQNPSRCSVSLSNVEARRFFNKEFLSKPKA
Method: The PLA(2) activity was measured by quantitatively analyzing the fluorescent product of hydrolysis from 1,2-bis-(4,4-difluoro-5,7-dimethyl-4-bora-3a,4a-diaza-s-indecene-3-undecanoyl)-sn-glycero-3-phosphocholine (hereinafter referred to bis-BODIPY®FL C11—PC, Molecular Probes, Inc., B-7701) using activated U937 cells (human monoblastic lymphoma cell line) by inflammatory stimulus (Meshulam, T. et al., The journal of Biological Chemistry 267 (30): 21465-21470 (1992); and Solito, E. et al., British Journal of Pharmacology 124: 1675-1683 (1998).). The substrate bis-BODIPY®FL C11—PC is incorporated into cellular membranes, the proximity of the BODIPY FL fluorophores on adjacent phospholipid acyl chains causes fluorescence self-quenching. Separation of the fluorophores upon hydrolytic cleavage of one of the acyl chains by PLA(1) or the PLA(2) results in increased fluorescence. In the activated U937 by inflammatory stimulus, it is shown that this substrate should be cleaved enzymatically by IV-cPLA(2) from the feature of its behaviors including sensitivity profiles against the inhibitors.
The human cell line U937 was purchased from Dai-Nippon Pharmaceuticals Co., Ltd. The cells were maintained by transferring every 3-4 days into RPMI 1640 medium (Sigma Chemical Co., R6504) supplemented with heat-inactivated 10% fetal bovine serum (Fetal Bovine Serum, Sigma Chemical Co., F 4135) in a 5% CO2 humidified atmosphere at 37° C. The cells were transferred into the culture medium described above, containing 1.2% (v/v) dimethylsulfoxide (hereinafter referred to as […], Nacalai tesque Co., Ltd., D 134-45), and pre-cultured for 96 to 120 hours so as to differentiate into the macrophage-like cells to be provided for the assay. The macrophage-like cells were collected and washed by centrifugation with the Assay medium (Dulbecco's phosphate buffered saline (hereinafter referred to as PBS)-2.2 mM glucose-2.5 μm albumin). Then, Phorbol 12-Myristate 13-Acetate (hereinafter referred to as TPA, Sigma Chemical Co., P 8139) was added to the Assay medium to be 1×10^−8M as the final concentration. Then, the macrophage-like cells were further cultured for an hour to be activated (Rzigalinski, B. A. & Rosenthal, M. D., Biochimica et Biophysica Acta 1223: 219-225 (1994); and Gonchar, M. V. et al., Biochemical and Biophysical Research Communication, 249: 829-832 (1998).).
For preparing substrate liposome suspension, bis-BODIPY®FL C11—PC was combined with phosphatidylcholine (Sigma Chemical Co., P 7769) at 1:9 molar ratio in chloroform, and dried under nitrogen flow. The dried mixture was suspended with the Assay medium at 100 μg/mL, voltexed and sonicated for an hour on ice under dark condition.
The test compound was dissolved with DMSO at 30 mM, and the solution diluted with either DMSO or the Assay medium before addition into the reaction mixture. The DMSO concentration in the reaction mixture was controlled so as to be no more than 0.1%. The 30-fold concentration of test compound solution was put into each well of MICRPTEST™ Tissue Culture Plate, 96 Well (Falcon, 3072) at a rate of 2.5 μL/well. To the respective well was added 25 μL/well of the activated U937 cell suspension ([…]), and the cells were pre-cultured for 120 min. at 37° C. in a 5% CO2 atmosphere incubator. 47.5 μL/well of the substrate liposome suspension with 1.5×10^−6M A23187 (Sigma Chemical Co., C 7522) was added into each well to prepare 75 μL/well of the total reaction mixture, followed by culture for 30 min. under the same conditions with shielding against light. 100 μL/well of 0.1% GEDTA (Dojindo Laboratories Co. Ltd., 348-01311) methanol solution was added into each well and mixed to stop the reaction. […]

[1] = system: acetic acid-induced writhes; experiment: Acetic acid writhing; format: in vivo, ICR-strain male mouse; settings: i.p., 10 to 20 min after acetic acid
Method: This test was carried out referring to the method of Inoue, K., Motonaga, A. & Nishimura, T (Arzneimittel Forshung/Drug Research, 41 (1): 235-239 (1991)). More specifically, 7.5 mL/kg of 0.9% acetic acid solution was injected intraperitoneally into an ICR-strain male mouse (5 to 7 weeks old), and the induced writhes (characteristic behaviors of convulsive contracting the abdomen, twisting the body and/or extending the legs) were observed. Number of writhes of each mouse was measured during 10 to 20 min. period after acetic acid administration. The compound of the present invention was homogeneously suspended in 2% Tween 80/saline for injection use, and was injected intraperitoneally 30 min. before the induction by the acetic acid injection. Alternatively, the compound of the present invention was homogeneously suspended in 2% Tween 80/distilled water, and was administrated orally two hours before the induction by the acetic acid injection. The analgesic activity of the compounds according to the present invention was evaluated on the basis of the degree of inhibiting the number writhes by the administration of the compounds. As the positive control, indomethacin or aspirin was administrated. The analgesic activity of the compounds according to the present invention measured in this test were exemplified in Table 7.

| Inhibition (%) (IV-cPLA(2); 0.1 μM) | Inhibition (%) (IV-cPLA(2); 0.01 μM) | Structure (SMILES) | Ear Edema Inhibition (%) (TPA-induced ear edema) | Number of writhes (Mean ± S.E.) ([1]; 1 mg/kg) | Number of writhes (Mean ± S.E.) ([1]; 0.3 mg/kg) | inhibition at 0.1 µM (IV-cPLA(2)) | melting point |
| --- | --- | --- | --- | --- | --- | --- | --- |
| 77% | – | CCOC(=O)CCC(NC(=O)N1C(=O)SC(c2ccc(Cl)cc2)C1C)C(=O)OCC (centres unmarked) [Compound 2-26] | 86% | – | 9.8 ± 1.9 | – | – |
| – | 64% | COC1CCCC(NC(=O)N2C(=O)OC(c3ccc4c(c3)CCCC4)C2C)O1 (centres unmarked) [Compound 2-135] | 84% | 0.8 ± 0.8 | – | – | – |
| – | 86% | Cc1ccc(C2SC(=O)N(C(=O)NC3CCCCO3)C2C)cc1 (centres unmarked) [Compound 2-189] | 84% | 0.8 ± 0.5 | – | – | – |

More lines, now with the values behind:

| Structure (SMILES) | Inhibition (%) (IV-cPLA(2); 0.1 μM) | Inhibition (%) (IV-cPLA(2); 0.01 μM) | Ear Edema Inhibition (%) (TPA-induced ear edema) | Number of writhes (Mean ± S.E.) ([1]; 1 mg/kg) | Number of writhes (Mean ± S.E.) ([1]; 0.3 mg/kg) | inhibition at 0.1 µM (IV-cPLA(2)) | melting point |
| --- | --- | --- | --- | --- | --- | --- | --- |
| CN=C1OC(c2ccc(C)cc2)C(C)N1C(=O)NC1CCCCO1 (centres unmarked) [Compound 1-22] | 84% | – | 56% | 12.7 ± 4.1 | – | – | – |
| C[C@H]1[C@H](c2ccc(Cl)cc2)OC(=N[N+](=O)[O-])N1Cc1ccc(Cl)nc1 (relative stereo) [Compound 1-12, trans-5-(4-chlorophenyl)-4-methyl-3-(2-chloro-5-pyridylmethyl)-2-nitroiminooxazolidine] | – | – | 79% | 10.0 ± 1.1 | – | 52% | – |
| C[C@@H]1NC(=N[N+](=O)[O-])O[C@H]1c1ccc(Cl)cc1 (relative stereo) [Compound 1-10, trans-5-(4-chlorophenyl)-4-methyl-2-nitroiminooxazolidine] | – | – | – | – | – | 79% | 123 to 126 °C |
